Experiments:
[1] = biological target: T1, MraY (Escherichia coli, UniProt P0A6W3); type: biochemical, E. coli; conditions: membranes of ET505 strains; average of 3 experiments ± standard deviation (tunicamycin: average of duplicates)
T1 construct: endogenous in cells; host or cells: E. coli K-12 ET505 (W3110 lysA::Tn10) membranes, carrying pJFlacZK (control) or pEmycZK (E-expressing)
T1 sequence (P0A6W3 1-360): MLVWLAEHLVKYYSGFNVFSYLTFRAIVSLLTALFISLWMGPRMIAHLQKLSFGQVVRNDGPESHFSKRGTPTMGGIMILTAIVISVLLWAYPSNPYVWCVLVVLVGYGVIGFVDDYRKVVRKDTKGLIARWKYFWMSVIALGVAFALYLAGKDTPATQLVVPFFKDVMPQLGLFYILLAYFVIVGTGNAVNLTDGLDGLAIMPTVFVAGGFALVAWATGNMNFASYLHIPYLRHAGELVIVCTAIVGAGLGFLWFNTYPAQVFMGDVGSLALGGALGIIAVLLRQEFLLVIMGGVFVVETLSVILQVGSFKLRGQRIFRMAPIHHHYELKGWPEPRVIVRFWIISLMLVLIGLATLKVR

[2] = biological target: T2, Rfe (Escherichia coli, UniProt P0AC78); type: biochemical, E. coli; conditions: membranes of ET505 strains; average of 3 experiments ± standard deviation
T2 construct: endogenous in cells; host or cells: E. coli K-12 ET505 (W3110 lysA::Tn10) membranes, carrying pJFlacZK (control) or pEmycZK (E-expressing)
T2 sequence (P0AC78 1-367): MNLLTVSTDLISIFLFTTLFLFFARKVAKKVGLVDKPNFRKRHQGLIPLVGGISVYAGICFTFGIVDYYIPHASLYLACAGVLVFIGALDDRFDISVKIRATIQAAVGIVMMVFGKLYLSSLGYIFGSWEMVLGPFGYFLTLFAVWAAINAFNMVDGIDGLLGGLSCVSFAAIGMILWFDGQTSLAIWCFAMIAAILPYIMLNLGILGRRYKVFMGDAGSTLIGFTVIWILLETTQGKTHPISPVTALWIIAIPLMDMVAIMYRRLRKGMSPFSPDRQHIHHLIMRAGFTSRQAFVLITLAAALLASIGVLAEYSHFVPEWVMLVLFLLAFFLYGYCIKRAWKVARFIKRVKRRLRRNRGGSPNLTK

Q: What does the source list for tunicamycin?
A: cpm of [3H]-UMP converted to [3H]-UDP-MurNAc-pentapeptide in membrane preparations by MraY [1]: 2000 cpm; cpm of [3H]-UMP converted to [3H]-UDP-GlcNAc in membrane preparations by Rfe [2]: 3400 ± 500 cpm

Source: patent US20050191628A1, “Antibiotics based upon bacteriophage lysis proteins” (priority 1999, published 2005)
